The text below walks through data of patent US9809640B2, “ApoE peptide dimers and uses thereof” (priority 2010, dated 2017).

The nature of data set [1]: Cytotoxicity on normal B-cells from volunteers. Type of data set: cell-based, human. The settings on record: human, normal B-cells from volunteers.
Source text: Normal B-cells from volunteers and B-CLL cells from patients are isolated using the RosetteSep™ Human B Cell Enrichment Cocktail according to the manufacturer's instructions. This method depletes whole blood of T cells, monocytes, and NK cells using a proprietary antibody cocktail that cross-links unwanted cells in human whole blood to multiple red blood cells (RBCs) forming immunorosettes. This increases the density of the unwanted (rosetted) cells, such that they pellet along with the free RBCs when centrifuged over a buoyant density medium such as Ficoll-Paque®. This leaves the highly enriched B-cell or B-CLL cells at the interface between Ficoll and the plasma. The antibodies in the cocktail contain anti-CD14, anti-CD2 and anti-CD16 antibodies to remove T cells, monocytes, and NK cells, respectively. The purity of these B-cell and B-CLL preparations is then determined by flow cytometry. Preparations typically average less than 2% CD3+ T-cells and less than 0.5% CD14+ monocytes. In the case of B-CLL cell isolation, we routinely obtain preparations that contain less than 1.5% normal CD19+/CD5− B-cells using this method.
Another data set deals with normal B-cells. Description: Cytotoxicity on normal B-cells from volunteers. Type of data set: cell-based, human.
For data set [2], the target named is T1, I2PP2A (SET) / PP2A catalytic subunit (Homo sapiens, UniProt Q01105).
T1 construct: endogenous in cells; host or cells: MDA-MB-231
Description: Co-immunoprecipitation of I2PP2A (SET) with PP2A catalytic subunit in MB231 cells. Type of data set: cell-based. As to conditions: 0.1 or 1 μM pre-treatment. An excerpt:
FIG. 12A: Total PP2A activity immunoprecipitated from MDA-MB-231 cells treated with EGF and increasing concentrations of COG445. FIG. 12B: Western blot and densitometry analysis of total c-myc protein levels in U87 cells treated with the indicated concentrations of COG445 in the presence or absence of okadaic acid. FIG. 12C: Immunoprecipitation of the catalytic subunit of PP2A from MDA-MB-231 cells exposed to EGF and two different concentrations of COG445. The blot is probed for I2PP2A (SET) and PP2A catalytic subunit.
To examine the mechanism of COG445 on PP2A activity, recombinant human PP2A catalytic subunit was incubated with COG445 and activity was measured. […] To further explore the changes of PP2A protein complexes, co-immunoprecipitation experiments were performed on MB231 cells.

The subject of the next data set is PDK1. Description: PDK1 activation, Western blot. Type of data set: cell-based. As to conditions: U87 and MB231. The source says:
(§1) FIGS. 10A-10B. […] FIG. 10A: Western blot analysis of U87 glioblastoma cells exposed to the indicated concentrations of COG445 peptide in the presence of EGF. The blot is probed with antibodies for the activated EGF receptor (P-EGFR), total EGF receptor, activated PDK1 (P-PDK1), and total PDK1. FIG. 10B: Western blot and densitometry analysis of Akt activation induced by EGF in U87 cells in the presence of increasing concentrations of COG445.
(§2) Akt signaling is often dysregulated in cancers thereby promoting cellular survival and proliferation. […] Given the effect of ApoE peptides on other inflammatory pathologies, we investigated the effect of an ApoE peptide dimer on Akt signaling in breast and brain cancer cells. A disulfide dimer of COG112 (SEQ ID NO: 1) was prepared as described in Example 1 (COG445). Adherent breast cancer cells, MDA-MB-231 (MB231), or glioblastoma cells, U87-MG (U87), were serum starved overnight and then exposed to COG445 for 2 hours before stimulating with epidermal growth factor (EGF) for 5 minutes. […] EGFR activation results in the activation of the PI3K/Akt signaling pathway, which is mediated by PDK1 activation.

A further data set deals with B-CLL cells. Kind of data set: Cytotoxicity on patient-derived B-CLL cells (MTS assay). An excerpt: FIG. 5A: Dose response curves for COG449 cytotoxicity on CLL cells from 4 leukemia patients. Human CLL cells were isolated from blood samples and assayed for COG449 cytotoxicity. […] FIG. 5B: Dose response curves for COG445 on CLL cells from 7 patients or normal B-cells from 5 patients. Human CLL cells and PBMC were isolated and assayed for cytotoxicity of COG445.
Blood from CLL patients was collected and CD5+/CD19+ CLL cells were isolated using the RosetteSep™ Human B-Cell Enrichment Cocktail, according to the manufacturer's instructions, and treated with COG compounds. Compounds were applied to B-CLL cells (2.5×10^5 cells/well in a 96 well plate), after which the cells were treated for 72 hours.
Normal B-cells from volunteers and B-CLL cells from patients are isolated using the RosetteSep™ Human B Cell Enrichment Cocktail according to the manufacturer's instructions. This method depletes whole blood of T cells, monocytes, and NK cells using a proprietary antibody cocktail that cross-links unwanted cells in human whole blood to multiple red blood cells (RBCs) forming immunorosettes. This increases the density of the unwanted (rosetted) cells, such that they pellet along with the free RBCs when centrifuged over a buoyant density medium such as Ficoll-Paque®. This leaves the highly enriched B-cell or B-CLL cells at the interface between Ficoll and the plasma. The antibodies in the cocktail contain […] and anti-CD16 antibodies to remove T cells, monocytes, and NK cells, respectively. The purity of these B-cell and B-CLL preparations is then determined by flow cytometry.
For cytotoxicity assays, 3×10^6 CLL cells/well are cultured in 24 well tissue culture plates in 1.5 mL of Hybridoma SFM™ (Gibco, Long Island, N.Y.) as described by Levesque et al. (2001, 2003). All cultures are incubated at 37° C., 5% CO2 in air.
In general terms: Formazan colour is commonly taken as a measure of viable cells.

In the next data set the test system is EGFR. Description: EGF-induced EGFR activation, Western blot. Type of data set: cell-based. As to conditions: up to 1 μM, U87 and MB231, EGF.
Source text: as §1, §2

A further data set has as its system U87MG glioblastoma cells. Type of data set: cell-based. As to conditions: U87, ~24 hours.

Positions of bridges follow the written chain, without caps; N, C: chain ends. Chains are numbered I, II in the order given.

T1 sequence (Q01105 2-290 limits assumed): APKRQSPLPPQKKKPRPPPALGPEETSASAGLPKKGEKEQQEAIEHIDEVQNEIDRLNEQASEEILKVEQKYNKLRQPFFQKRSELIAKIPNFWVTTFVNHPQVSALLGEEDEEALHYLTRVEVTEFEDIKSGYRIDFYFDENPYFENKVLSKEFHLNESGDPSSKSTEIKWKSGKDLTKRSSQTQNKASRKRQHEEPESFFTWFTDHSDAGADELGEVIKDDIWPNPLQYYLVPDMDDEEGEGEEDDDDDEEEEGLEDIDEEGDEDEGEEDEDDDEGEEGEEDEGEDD

Consider “I: Ac-RQIKIWFQNRRMKWKKCLRVRLASHLRKLRKRLL-NH2 / II: Ac-RQIKIWFQNRRMKWKKCLRVRLASHLRKLRKRLL-NH2 (disulfide I:17-II:17) [COG445, COG112-C-C-COG112]”, for which the EC50 at 72 h in data set [1] was greater than 10000 nM. Also, in the data set with normal B-cells, the “EC50 normal B-cells relative to CLL cells” value is roughly 200 fold. In addition, the “association of I2PP2A to the catalytic subunit of PP2A” value in data set [2] is “strongly diminished”. For the same substance, in the data set with PDK1, the “PDK1 activation (serine 241 phosphorylation)” value is “did not alter”. The “Fold Change” value with B-CLL cells (CLL EC50 relative to COG056 (rev133) = 1.0) was 117.3. The EC50 with B-CLL cells (read-out: ED50 for cytotoxicity of CLL cells, purified disulfide dimer, dimer molecular weight) turned out to be 110 nM. Also, the “EGFR activation (tyrosine 1045 phosphorylation)” value with EGFR is on record as “did not alter”. Further, the “proliferation by MTT reduction” value with U87MG glioblastoma cells was “dose-dependent decrease”.
